Values joined by “and” are separate entries in the source; they are usually repeats but may differ in a detail not shown here. Identical values can stand only once. Toxic doses and inconclusive results are not listed. Rule as the data show it: active = T/C of 150% or more; inactive = T/C below 125%.
Tested on: L1210 leukemia ip in BDF1 mice, survival T/C
Assay: NCI In Vivo Anticancer Drug Screen. Data for tumor model L1210 Leukemia (intraperitoneal) in B6D2F1 (BDF1) mice
Conditions: endpoint: mean survival time, higher = longer survival
In short: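 Survival endpoint. Drug-treated group vs vehicle group, expressed as T divided by C. Tumor passaged by transplantation.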

[1] = dose: 100.0 mg/kg/injection, schedule: Q01DX001 (ip), vehicle: saline
[2] = dose: 200.0 mg/kg/injection, schedule: Q01DX001 (ip), vehicle: saline
[3] = dose: 400.0 mg/kg/injection, schedule: Q01DX001 (ip), vehicle: saline
[4] = dose: 100.0 mg/kg/injection, schedule: Q04DX003 (ip), vehicle: saline
[5] = dose: 200.0 mg/kg/injection, schedule: Q04DX003 (ip), vehicle: saline
[6] = dose: 400.0 mg/kg/injection, schedule: Q04DX003 (ip), vehicle: saline

Measured: T/C

CC(C)=NNC(=O)c1ccc[n+](C)c1
inactive: [1] 102 % of control | [2] 98 % of control | [3] 100 % of control

CSCCNC(=O)NS(=O)(=O)c1ccc(Cl)cc1
inactive: [4] 96 % of control | [5] 97 % of control | [6] 92 % of control

Nc1cc(O)c(CCCNC(=O)CBr)c(-c2ccccc2)c1
inactive: dose: 100.0 mg/kg/injection, schedule: Q01DX001 (ip), vehicle: Klucel (hydroxypropylcellulose) (HPC) 92 % of control | dose: 200.0 mg/kg/injection, schedule: Q01DX001 (ip), vehicle: Klucel (hydroxypropylcellulose) (HPC) 105 % of control | dose: 400.0 mg/kg/injection, schedule: Q01DX001 (ip), vehicle: Klucel (hydroxypropylcellulose) (HPC) 102 % of control

Cc1cc(Cl)c(Cl)cc1NC(=O)c1c(Br)c(Br)c(Br)c(Br)c1C(=O)O
inactive: dose: 100.0 mg/kg/injection, schedule: Q01DX009 (ip), vehicle: Klucel (hydroxypropylcellulose) (HPC) 108 % of control | dose: 200.0 mg/kg/injection, schedule: Q01DX009 (ip), vehicle: Klucel (hydroxypropylcellulose) (HPC) 96 % of control | dose: 400.0 mg/kg/injection, schedule: Q01DX009 (ip), vehicle: Klucel (hydroxypropylcellulose) (HPC) 95 % of control

CN1CCCC1c1ccc(Br)cc1 (centres undefined)
inactive: dose: 100.0 mg/kg/injection, schedule: Q01DX001 (ip), vehicle: acetone 95 % of control

CCOC(=O)C/C(=N\Nc1ccc([N+](=O)[O-])cc1[N+](=O)[O-])c1ccccc1
inactive: dose: 100.0 mg/kg/injection, schedule: Q04DX003 (ip), vehicle: saline sonified 96 % of control | dose: 200.0 mg/kg/injection, schedule: Q04DX003 (ip), vehicle: saline sonified 96 % of control | dose: 400.0 mg/kg/injection, schedule: Q04DX003 (ip), vehicle: saline sonified 91 % of control

N#Cc1nc2c(nc1C#N)-c1ccccc1/C2=C1/C(=O)Cc2ccccc21
inactive: dose: 25.0 mg/kg/injection, schedule: Q04DX002 (ip), vehicle: other 93 % of control and 90 % of control

CC(=O)OC(c1ccccc1)C(C)C (centres undefined)
inactive: dose: 100.0 mg/kg/injection, schedule: Q04DX002 (ip), vehicle: saline 107 % of control | dose: 200.0 mg/kg/injection, schedule: Q04DX002 (ip), vehicle: saline 96 % of control | dose: 400.0 mg/kg/injection, schedule: Q04DX002 (ip), vehicle: saline 103 % of control

NC(=O)N/N=C/c1ccccc1N
inactive: dose: 100.0 mg/kg/injection, schedule: Q01DX009 (ip), vehicle: saline with Tween-80 94 % of control | dose: 200.0 mg/kg/injection, schedule: Q01DX009 (ip), vehicle: saline with Tween-80 94 % of control | dose: 400.0 mg/kg/injection, schedule: Q01DX009 (ip), vehicle: saline with Tween-80 96 % of control

O=C(NCC(O)CNC(=O)Nc1ccc(C2=NCCCN2)cc1)Nc1ccc(C2=NCCCN2)cc1
inactive: dose: 1.25 mg/kg/injection, schedule: Q01DX Z (ip), vehicle: carboxymethylcellulose (CMC) 98 % of control | dose: 2.5 mg/kg/injection, schedule: Q01DX Z (ip), vehicle: carboxymethylcellulose (CMC) 101 % of control | dose: 5.0 mg/kg/injection, schedule: Q01DX Z (ip), vehicle: carboxymethylcellulose (CMC) 90 % of control | dose: 10.0 mg/kg/injection, schedule: Q01DX Z (ip), vehicle: carboxymethylcellulose (CMC) 97 % of control and 106 % of control | dose: 20.0 mg/kg/injection, schedule: Q01DX Z (ip), vehicle: carboxymethylcellulose (CMC) 104 % of control

CCN(CC)CCCC(C)Nc1c2ccc(Cl)cc2nc2ccc(OC)cc12 (centres undefined)
inactive: dose: 7.5 mg/kg/injection, schedule: Q01DX Z (ip), vehicle: saline 93 % of control | dose: 15.0 mg/kg/injection, schedule: Q01DX Z (ip), vehicle: saline 95 % of control | dose: 25.0 mg/kg/injection, schedule: Q01DX015 (ip), vehicle: carboxymethylcellulose (CMC) 102 % of control | dose: 30.0 mg/kg/injection, schedule: Q01DX Z (ip), vehicle: saline 96 % of control | dose: 50.0 mg/kg/injection, schedule: Q01DX015 (ip), vehicle: carboxymethylcellulose (CMC) 102 % of control | dose: 50.0 mg/kg/injection, schedule: Q01DX Z (ip), vehicle: water 104 % of control | dose: 100.0 mg/kg/injection, schedule: Q01DX001 (ip), vehicle: carboxymethylcellulose (CMC) 96 % of control | dose: 100.0 mg/kg/injection, schedule: Q01DX015 (ip), vehicle: carboxymethylcellulose (CMC) 102 % of control | dose: 200.0 mg/kg/injection, schedule: Q01DX001 (ip), vehicle: carboxymethylcellulose (CMC) 116 % of control

Nc1nc2nc(N=Nc3ccc(S(N)(=O)=O)cc3)[nH]c2c(=O)[nH]1
inactive: dose: 100.0 mg/kg/injection, schedule: Q04DX003 (ip), vehicle: Klucel (hydroxypropylcellulose) (HPC) 96 % of control | dose: 200.0 mg/kg/injection, schedule: Q04DX003 (ip), vehicle: Klucel (hydroxypropylcellulose) (HPC) 93 % of control | dose: 400.0 mg/kg/injection, schedule: Q04DX003 (ip), vehicle: Klucel (hydroxypropylcellulose) (HPC) 99 % of control

CC(=O)/C=C\c1ccc(Cl)cc1
inactive: [1] 106 % of control | [2] 98 % of control | [3] 106 % of control

O=C(O)C1=CC(O)C(O)C(O)C1 (centres undefined)
inactive: dose: 100.0 mg/kg/injection, schedule: Q01DX009 (ip), vehicle: saline sonified 103 % of control | dose: 100.0 mg/kg/injection, schedule: Q01DX009 (ip), vehicle: saline 104 % of control | [4] 92 % of control | dose: 200.0 mg/kg/injection, schedule: Q01DX009 (ip), vehicle: saline sonified 86 % of control | dose: 200.0 mg/kg/injection, schedule: Q01DX009 (ip), vehicle: saline 107 % of control | [5] 100 % of control | dose: 400.0 mg/kg/injection, schedule: Q01DX009 (ip), vehicle: saline 106 % of control | [6] 97 % of control

O=C(O)c1ccccc1C(=O)Nc1cccc2ccccc12
inactive: dose: 100.0 mg/kg/injection, schedule: Q04DX002 (ip), vehicle: Klucel (hydroxypropylcellulose) (HPC) 88 % of control | dose: 200.0 mg/kg/injection, schedule: Q04DX002 (ip), vehicle: Klucel (hydroxypropylcellulose) (HPC) 104 % of control

O=C(Nc1cccc(C2=NCCCN2)c1)c1ccc(C(=O)Nc2cccc(C3=NCCCN3)c2)cc1
inactive: dose: 0.1 mg/kg/injection, schedule: Q01DX Z (ip), vehicle: saline 95 % of control | dose: 0.2 mg/kg/injection, schedule: Q01DX Z (ip), vehicle: saline 100 % of control | dose: 0.3 mg/kg/injection, schedule: Q01DX Z (ip), vehicle: saline 97 % of control | dose: 0.5 mg/kg/injection, schedule: Q01DX Z (ip), vehicle: saline 97 % of control

CN(C=O)C(=S)[S-].CN(C=O)C(=S)[S-].CN(C=O)C(=S)[S-].O=C(Nc1ccc(S(=O)(=O)Nc2ccc(N=Nc3ccc4nc([S-])sc4c3)cc2)cc1)C(N1CC1)(N1CC1)N1CC1.[Pd]
inactive: dose: 6.25 mg/kg/injection, schedule: Q01DX009 (ip), vehicle: saline 109 % of control | dose: 6.25 mg/kg/injection, schedule: Q04DX003 (ip), vehicle: saline 108 % of control | dose: 12.5 mg/kg/injection, schedule: Q01DX009 (ip), vehicle: saline 101 % of control | dose: 12.5 mg/kg/injection, schedule: Q04DX003 (ip), vehicle: saline 106 % of control | dose: 25.0 mg/kg/injection, schedule: Q01DX009 (ip), vehicle: saline 98 % of control | dose: 25.0 mg/kg/injection, schedule: Q04DX003 (ip), vehicle: saline 103 % of control

CC(=O)[O][Hg][c]1c(C)c(C)c(C)c(C)c1C
inactive: dose: 12.5 mg/kg/injection, schedule: Q04DX003 (ip), vehicle: saline with Tween-80 87 % of control | dose: 25.0 mg/kg/injection, schedule: Q04DX003 (ip), vehicle: saline with Tween-80 87 % of control | dose: 50.0 mg/kg/injection, schedule: Q04DX003 (ip), vehicle: saline with Tween-80 87 % of control

O=C(Nc1ccc(Cl)cc1)Nc1cccc2nsnc12
inactive: dose: 100.0 mg/kg/injection, schedule: Q04DX002 (ip), vehicle: saline with Tween-80 97 % of control | dose: 200.0 mg/kg/injection, schedule: Q04DX002 (ip), vehicle: saline with Tween-80 93 % of control | dose: 400.0 mg/kg/injection, schedule: Q04DX002 (ip), vehicle: saline with Tween-80 90 % of control

Reference: PubChem BioAssay AID248 (DTP/NCI, 2004)
